Measured values published in article PMC9953315, “Cytochrome P450 Surface Domains Prevent the β-Carotene Monohydroxylase CYP97H1 of Euglena gracilis from Acting as a Dihydroxylase” (Biomolecules, 2023).

Legend:
Test in all cases: in vivo carotenoid production in E. coli, HPLC-DAD and LC-MS
Format in all cases: cell-based
tCYP97H1 [1] = molecular target: T1, tCYP97H1 (Euglena gracilis, UniProt A0A1Y1C5R9, F221A); conditions: beta-carotene producing E. coli, S. oleracea ferredoxin / ferredoxin reductase co-expressed; product beta-cryptoxanthin
T1 construct: gene CYP97H1; plastid signal M1-L116 deleted; E. coli codon optimised; expressed in beta-carotene producing E. coli with Spinacia oleracea ferredoxin / ferredoxin reductase
T1 sequence (A0A1Y1C5R9 entry or part of it F221A): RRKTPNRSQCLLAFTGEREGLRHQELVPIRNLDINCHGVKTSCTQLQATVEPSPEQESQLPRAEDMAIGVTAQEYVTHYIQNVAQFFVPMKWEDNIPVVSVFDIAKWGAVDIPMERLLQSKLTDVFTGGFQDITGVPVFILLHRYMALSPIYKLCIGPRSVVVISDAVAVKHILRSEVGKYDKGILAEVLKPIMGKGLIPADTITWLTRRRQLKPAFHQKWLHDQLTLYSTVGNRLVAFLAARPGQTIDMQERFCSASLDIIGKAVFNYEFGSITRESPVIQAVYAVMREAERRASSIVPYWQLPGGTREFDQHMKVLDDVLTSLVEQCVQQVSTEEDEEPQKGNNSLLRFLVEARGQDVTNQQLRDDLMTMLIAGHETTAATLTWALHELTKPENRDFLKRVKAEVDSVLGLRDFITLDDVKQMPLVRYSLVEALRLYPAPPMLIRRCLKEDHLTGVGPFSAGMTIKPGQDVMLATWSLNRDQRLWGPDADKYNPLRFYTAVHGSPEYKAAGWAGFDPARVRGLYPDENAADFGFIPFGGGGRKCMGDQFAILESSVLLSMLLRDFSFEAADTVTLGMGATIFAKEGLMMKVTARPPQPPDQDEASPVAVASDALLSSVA

tCYP97H1 [2] = molecular target: T2, tCYP97H1 (Euglena gracilis, UniProt A0A1Y1C5R9, F218A); conditions: beta-carotene producing E. coli, S. oleracea ferredoxin / ferredoxin reductase co-expressed, product beta-cryptoxanthin
T2 construct: gene CYP97H1; plastid signal M1-L116 deleted; E. coli codon optimised; expressed in beta-carotene producing E. coli with Spinacia oleracea ferredoxin / ferredoxin reductase
T2 sequence (A0A1Y1C5R9 entry or part of it F218A): as the sequence (A0A1Y1C5R9 entry or part of it F221A) above, with F102A, A105F counted along it

tCYP97H1 [3] = molecular target: T3, tCYP97H1 (Euglena gracilis, UniProt A0A1Y1C5R9); conditions: beta-carotene producing E. coli, S. oleracea ferredoxin / ferredoxin reductase co-expressed, product beta-cryptoxanthin
T3 construct: gene CYP97H1; plastid signal M1-L116 deleted; E. coli codon optimised; expressed in beta-carotene producing E. coli with Spinacia oleracea ferredoxin / ferredoxin reductase
T3 sequence (A0A1Y1C5R9 entry or part of it): as the sequence (A0A1Y1C5R9 entry or part of it F221A) above, with A105F counted along it

tCYP97H1 [4] = molecular target: T4, tCYP97H1 (Euglena gracilis, UniProt A0A1Y1C5R9, F242A); conditions: beta-carotene producing E. coli, S. oleracea ferredoxin / ferredoxin reductase co-expressed; product beta-cryptoxanthin
T4 construct: gene CYP97H1; plastid signal M1-L116 deleted; E. coli codon optimised; expressed in beta-carotene producing E. coli with Spinacia oleracea ferredoxin / ferredoxin reductase
T4 sequence (A0A1Y1C5R9 entry or part of it F242A): as the sequence (A0A1Y1C5R9 entry or part of it F221A) above, with A105F, F126A counted along it

tCYP97A3At = molecular target: T5, tCYP97A3At (Arabidopsis thaliana, UniProt Q93VK5); conditions: beta-carotene producing E. coli, S. oleracea ferredoxin / ferredoxin reductase co-expressed, product beta-cryptoxanthin
T5 construct: gene CYP97A3; first 77 residues deleted, no MBP tag; expressed in beta-carotene producing E. coli with Spinacia oleracea ferredoxin / ferredoxin reductase
T5 sequence (Q93VK5 78-595): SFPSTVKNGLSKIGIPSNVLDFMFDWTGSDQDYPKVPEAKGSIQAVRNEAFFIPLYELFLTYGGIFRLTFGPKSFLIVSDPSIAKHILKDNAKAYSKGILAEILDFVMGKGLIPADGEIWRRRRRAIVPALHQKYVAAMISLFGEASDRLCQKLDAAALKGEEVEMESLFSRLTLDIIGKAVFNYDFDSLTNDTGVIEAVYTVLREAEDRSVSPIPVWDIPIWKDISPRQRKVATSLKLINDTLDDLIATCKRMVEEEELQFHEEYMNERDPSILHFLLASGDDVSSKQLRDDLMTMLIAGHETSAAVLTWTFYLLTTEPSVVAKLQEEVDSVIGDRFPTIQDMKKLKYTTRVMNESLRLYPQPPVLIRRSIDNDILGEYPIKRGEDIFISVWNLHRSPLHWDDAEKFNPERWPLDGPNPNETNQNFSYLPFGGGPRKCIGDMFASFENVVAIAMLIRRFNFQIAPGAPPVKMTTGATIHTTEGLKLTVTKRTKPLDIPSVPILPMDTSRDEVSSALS

tCYP97H1 [5] = molecular target: T6, tCYP97H1 (Euglena gracilis, UniProt A0A1Y1C5R9, F246A); conditions: beta-carotene producing E. coli, S. oleracea ferredoxin / ferredoxin reductase co-expressed; product beta-cryptoxanthin
T6 construct: gene CYP97H1; plastid signal M1-L116 deleted; E. coli codon optimised; expressed in beta-carotene producing E. coli with Spinacia oleracea ferredoxin / ferredoxin reductase
T6 sequence (A0A1Y1C5R9 entry or part of it F246A): as the sequence (A0A1Y1C5R9 entry or part of it F221A) above, with A105F, F130A counted along it

[6] = beta-cryptoxanthin formed in situ, side product zeaxanthin

SMILES | in vivo carotenoid production in E. coli, HPLC-DAD and LC-MS (tCYP97H1 [1]) | in vivo carotenoid production in E. coli, HPLC-DAD and LC-MS (tCYP97H1 [2]) | in vivo carotenoid production in E. coli, HPLC-DAD and LC-MS (tCYP97H1 [3]) | in vivo carotenoid production in E. coli, HPLC-DAD and LC-MS (tCYP97H1 [4]) | in vivo carotenoid production in E. coli, HPLC-DAD and LC-MS (tCYP97A3At) | in vivo carotenoid production in E. coli, HPLC-DAD and LC-MS (tCYP97H1 [5]) | in vivo carotenoid production in E. coli, HPLC-DAD and LC-MS (tCYP97H1 [2]; [6]) | in vivo carotenoid production in E. coli, HPLC-DAD and LC-MS (tCYP97H1 [3]; [6]) | in vivo carotenoid production in E. coli, HPLC-DAD and LC-MS (tCYP97A3At; beta-cryptoxanthin formed in situ, product zeaxanthin)
CC1=C(/C=C/C(C)=C/C=C/C(C)=C/C=C/C=C(C)/C=C/C=C(C)/C=C/C2=C(C)CCCC2(C)C)C(C)(C)CCC1 [β-carotene] | All these single mutants exhibited reduced β-cryptoxanthin production | All these single mutants exhibited reduced β-cryptoxanthin production | the deletion of the plastid peptide signal from residue M1 to L116 improved activity | All these single mutants exhibited reduced β-cryptoxanthin production | production of a small amount of hydroxylated β-carotene in vivo | All these single mutants exhibited reduced β-cryptoxanthin production | – | – | –
CC1=C(/C=C/C(C)=C/C=C/C(C)=C/C=C/C=C(C)/C=C/C=C(C)/C=C/C2=C(C)C[C@@H](O)CC2(C)C)C(C)(C)CCC1 [β-cryptoxanthin] | – | – | – | – | – | – | the zeaxanthin:β-cryptoxanthin ratio was displaced in favour of zeaxanthin | A small side production of zeaxanthin was detected with CYP97H1 and the F105A mutant | β-cryptoxanthin and zeaxanthin detection were confirmed by mass spectrometry in the strain ETL154, expressing CYP97A3
